Key:
[1] = target: histone deacetylase (HDAC); experiment: HDAC inhibition assay (Fluor de Lys fluorescent assay, HeLa lysate); type: biochemical; details: mantissa in r5, exponent and unit in r6
Experimental: The histone deacetylase (HDAC) activity was measured in HeLa lysate suspensions using a Fluor de Lys™ fluorescent assay system (Biomol, Enzo Life Sciences; PA, USA) with some modification as described previously (Pflum et al., 2007). In brief, HeLa lysate (1.5 μl) were preincubated in the presence of test compound or vehicle (DMSO, 0.2% v/v) at 30° C. for 10 minutes, therefore Fluor de Lys™ substrate (125 μM) was added and incubated at 37° C. under shaking for 45 minutes. Finally, the developer reagent (95 μl, 1×) was immediately added to the same aliquot of the reaction mixture for another 10 minutes. The extent of deacetylated substrate formation was monitored by a microplate fluorescence reader (Thermo Varioskan Flash, Thermofisher; MA, USA) to determine the fluorescence intensity (excitation at 360 nm, emission at 460 nm). The results were expressed as the percent inhibition of the rate of deacetylated substrate formation on the reacting interval. […] See Bieliauskas et al., Bioorg. Med. Chem. Lett., 2007, 17: 2216-2219.

IMR90 cells = experiment: In vitro wound healing activity (scrape wound, cell migration); type: cell-based; details: 24 hours, Compound 1 0.1, 0.5, 1 mM, Compound 3 0.05, 0.5, 1 μM
Experimental: The wound healing activities of Compounds 1 and 3 were in vitro assessed by the method provided in Valster et al., Methods, 2005, 37, 208-215 and Rodriguez et al., “Methods in Molecular Biology” in Cell Migration: Developmental Methods and Protocols, vol. 294, Ed by Guan et al. Humana. Press Inc.
IMR90 cells were seeded on a six-well culture dish and grown in MEM medium with 10% FBS to confluence in the presence of serum. The growth medium (MEM with 10% FBS) was then replaced with a serum-free medium (MEM without FBS). After starved for 24 hours, wounds were made by scraping using a P1000 pipette tip. […] The wounds were observed by a phase contrast microscopy using an inverted microscope. Images were taken at areas flanking the intersections of the wounds and the marker lines at regular intervals over a period of 24 hours. These images were analyzed through a digital imaging system using Image-Pro Plus® (Media Cybernetics, Silver Spring, Md.) to determine the position of the migrating cells at the wound edges. The cell migration distance was calculated by substracting the width of the wound at each interval from its initial width.

5-FU-induced mucositis = experiment: In vivo anti-mucositis activity (5-FU, buccal pouch wound); design: species or system Syrian golden hamsters; details: hamster, subcutaneous once a day Day 0 to Day 5; Compound 1 36, 72, 144 mg/kg; Compound 3 0.5, 5.0, 50.0 mg/kg; dose-dependent
Experimental: Twenty young Syrian golden hamsters, 7 to 8 weeks old weighing 90 to 130 g, were numbered and randomly divided into five groups (4 hamsters each group).
Each hamster in the five groups was punched at the right buccal pouch mucosa with a skin puncher on Day 0 to give a 6 mm diameter wound. Four groups were intraperitoneally administered with 5-FU at 20 mg/kg twice at Day 0 and one group was used as a control without any treatment. […] Wounds were examined macroscopically and microscopically 0.5, 1, 2, 3, 4, 5, and 6 days after the punching. The hematological parameters, serum biochemistry, extents of inflammatory cell infiltration, sizes of hemorrhagic areas, and presence of ulcers and abscesses were recorded. After Day 6, all of the hamsters were anesthetized with isoflurane (2-chloro-2-difluoromethoxy-1,1,1-trifluoro-ethane) for macroscopic and histological analysis and Western blot analysis.

COX-2 = experiment: In vitro COX-2 protein expression (Western blot); type: cell-based; details: IMR90 cells; 0.05-1.0 μM; dose-dependent
Experimental: To detect COX-2 protein expression, Western blot analysis was performed as follows. Briefly, Compound 3-treated IMR90 cells, stimulated by wounds (scraping using a P1000 pipette tip) and non-stimulated, were collected and lysed in 1× lysis buffer. Protein concentrations of these lysed cells were measured using Bio-Rad quantification assay (Bio-Rad Laboratory, CA). Protein extracts (20 μg) were subjected to electrophoresis on a 10% SDS-PAGE and transferred to PVDF membrane. The antibody recognizing COX-2 was obtained from Epitomics (Burlingame, Calif.). The antibody recognizing β-actin was from obtained Sigma (St. Louis, Mo.). All antibodies were rabbit polyclonal antibodies except for the β-actin antibody, which was a mouse monoclonal antibody. Secondary antibodies were anti-rabbit IgG and anti-mouse IgG (horseradish-peroxidase linked antibodies), respectively (Amersham Biosciences, Piscataway, N.J.). Primary antibodies were used at a 1:1,000 dilution and secondary antibodies were used at a 1:5,000 dilution in a solution containing 5% BSA in TBS-T. Immunoreactive proteins were detected using the enhanced chemiluminescence light (ECL) detecting kit (Millipore).

SMILES | IC50 [1] [nM] | melting point | wound healing (IMR90 cells) | 5-FU-induced mucositis in wound areas (5-FU-induced mucositis) | COX-2 protein expression (COX-2)
CC(C)(C)OC(=O)NC(Cc1ccc(OCc2ccccc2)cn1)C(=O)NCc1ccc(C(=O)NO)cc1 (stereo not shown) [Compound 7, tert-butyl 3-(5-(benzyloxy)pyridin-2-yl)-1-(4-(hydroxycarbamoyl)benzylamino)-1-oxopropan-2-ylcarbamate] | 1320 | 106 to 108 °C |  |  | 
CC(C)(C)OC(=O)NC(Cc1ccc(O)cn1)C(=O)Nc1ccc(CCCC(=O)NO)cc1 (stereo not shown) [Compound 4, tert-butyl-1-(4-(4-(hydroxyamino)-4-oxobutyl)phenylamino)-3-(5-hydroxypyridin-2-yl)-1-oxopropan-2-ylcarbamate] | 4130 | 166 to 167 °C |  |  | 
O=C(CCCc1ccccc1)NO [Compound 1, N-hydroxy-4-phenylbutanamide] |  |  | promoted wound healing | reduced 5-FU-induced mucositis | 
NC(Cc1ccc(O)cn1)C(=O)Nc1ccc(CCCC(=O)NO)cc1 (stereo not shown) [Compound 6, 4-(4-(2-amino-3-(5-hydroxypyridin-2-yl)-propanamido)phenyl)-N-hydroxybutanamide] |  | 230 °C (dec.) |  |  | 
CC(C)(C)OC(=O)N[C@H](Cc1ccc(OCc2ccccc2)cn1)C(=O)Nc1ccc(CCCC(=O)NO)cc1 [Compound 3, (R)-tert-butyl 3-(5-(benzyloxy)pyridin-2-yl)-1-(4-(4-(hydroxylamino)-4-oxobutyl)phenylamino)-1-oxopropan-2-ylcarbamate] | 398 |  | promoted wound healing | reduced 5-FU-induced mucositis | inhibited COX-2 protein expression
NC(Cc1ccc(OCc2ccccc2)cn1)C(=O)Nc1ccc(CCCC(=O)NO)cc1 (stereo not shown) [Compound 5, 4-(4-(2-amino-3-(5-(benzyloxy)pyridin-2-yl)propanamido)phenyl)-N-hydroxybutanamide] |  | > 300 °C |  |  | 
CC(C)(C(=O)NO)C(O)Cc1ccccc1 (stereo not shown) [Compound 2, N,3-dihydroxy-2,2-dimethyl-4-phenylbutanamide] |  | 95 to 96 °C |  |  | 

Source: patent US8242282B2, “Histone deacetylase inhibitors” (Taipei Medical University, priority 2010, dated 2012)
